{"source": "patent US20100015126A1", "about": "“Methods of Binding of Cross-Beta Structures By Chaperones” (priority 2006, published 2010)", "system": "HUVECs", "experiment": "Adhesion of HUVECs to immobilized misfolded proteins under influence of BiP (LDH read-out)", "assay_type": "cell-based, human", "conditions": "for Number of adhered HUVECs after preincubation of coated protein with BiP: BiP approximately 200 μg/ml", "procedure": "HUVECs are primary endothelial cells (ECs), isolated from umbilical cords using 0.1% collagenase (Sigma, C0130, 100 mg, dissolved in 100 ml M199 medium supplemented with 10% FCS (Gibco 10106-169) and Penicillin-Streptomycin (P/S, Gibco, 15140-122)), according to widespread used standard procedures known to a person skilled in the art. HUVECs have the typical features of ECs, e.g. cobblestone morphology and von Willebrand factor storage in Weibel-Palade bodies. HUVECs can regularly be cultured up to passage 5; beyond passage 5 HUVECs loose typical EC markers. The isolation is described here in brief. The umbilical cord is washed for less than 3 minutes in ethanol and subsequently with PBS. The vein is connected to canules and flushed with 10 ml PBS, followed by loading with the 0.1% collagenase solution. After a 15 minute-incubation at 37° C., the detached endothelial cell suspension is recovered by flushing the vein with 10 ml medium which is subsequently added to the collagenase solution. The EC suspension is centrifuged for 5 minutes at room temperature, at low g-force. Supernatant is discarded and the cell pellet is resuspended in 5 ml ‘rich medium’ (EGM-2; Endothelial basal medium (EBM-2, Cambrex, CC-3156) and Singlequots containing supplements for endothelial cells (Cambrex, CC-4176)). Cells (passage 0, P0) are seeded in a culture flask coated with 0.5% gelatin (Sigma, G1393). To facilitate the adhesion of the endothelial cells, human fibronectin is added to the cell culture at a final concentration of 2 μg/ml. EC's are cultured at 37° C., at 5% CO2. The cell culture medium is refreshed every 2-3 days up to when the cells grow to confluency. Then, with the addition of trypsin-EDTA, the cells are detached from the flask, centrifuged at low g-force, resuspended in rich medium and seeded in larger 0.5% gelatin-precoated cell culture flasks.\nIn 96-wells plates (Immulon high-binding plates, Thermo Labsystems 3355) proteins, i.e. BSA-AGE, control BSA, IgIV Gammagard, crossbeta dIgIV-86 at 5 μg/ml, 10 μg/ml misfolded oxLDL, or gelatin (Sigma G1393, 2% solution in H2O or PBS, positive control for adhesion to ECs) were coated using 100 μl solutions, in six wells for each condition. Following incubation for 2 hours at 37° C. the solutions were discarded and the wells blocked for 1 hour at 37° C. with 100 μl/well of 1% polyvinyl-pyrrolidone (PVP, Sigma P5288) in PBS, filter (0.22 μm) sterilized. […] Subsequently, the block solution was discarded. Next, the plates were incubated with 40 μl RPMI 1640 medium (Gibco, 52400) and 10 μl of the potential inhibitor, i.e. recombinant human BiP at approximately 200 μg/ml final concentration. HUVECs were obtained by trypsinization. […] The absorbance at 490 nm was measured on a Versamax microplate reader at various time points."}
{"substance": "native BSA: non-modified bovine serum albumin control", "values": [{"measurement": "Number of adhered HUVECs after preincubation of coated protein with BiP", "result": "hardly increase"}]}
{"substance": "BSA-AGE", "values": [{"measurement": "Number of adhered HUVECs after preincubation of coated protein with BiP", "result": "hardly increase"}, {"measurement": "Adhesion of HUVECs to coated protein", "setting": "without BiP, LDH activity after lysis", "result": "to a similar extent as to gelatin"}]}
